Assay results as given in patent publication US11505558B1, “Antiviral heterocyclic compounds” (Enanta Pharmaceuticals, Inc., priority 2019, dated 2022).
pEC50: −log10 of the molar value. Where two headings read alike, the source gives them in different places.

What was measured:
[1] = tested on: recombinant HMPV CAN97-83 (MPV-GFP1); assay: HMPV antiviral assay (MPV-GFP1 eGFP fluorescence in Vero E6 cells); format: cell-based; conditions: human metapneumovirus, Vero C1008, 120 h, read-out: HMPV EC50
Procedure: HMPV antiviral activity was evaluated using a recombinant version of HMPV CAN97-83 engineered to contain the coding sequence for enhanced green fluorescence protein (eGFP) in the 3′ end of the virus genome (MPV-GFP1, ViraTree). Vero E6 cells ([…]) were seeded at a density of 12,000 cells/100 μL/well into 96-well cell plates one day prior to the assay. On the day of screening, the cell culture medium was aspirated from the wells and cells were washed twice with serum-free Eagle's Modified Essential Medium (EMEM, ATCC #) containing 1% penicillin-streptomycin (Invitrogen) (SF-EMEM). Cell washes were performed by dispensing 100 μL SF-EMEM per well and immediately aspirating the wash medium from the well. Following the second wash step, serum-free OptiMEM (Invitrogen, Cat No.) (SF-OptiMEM) containing 0.5 μg/mL TPCK-Trypsin (VENDOR) and 1% penicillin-streptomycin was added to the cells at 50 μL/well. Compounds were added into the 96-well plates using a JANUS automated liquid handling system (VENDOR). Compounds were initially diluted 1:50 into an intermediate 96-well plate containing SF-OptiMEM prior to transfer to the assay plate (25 μL/well). Each of the test compounds were tested in duplicate wells at final concentrations starting from 8 μM or 2 μM using ½ stepwise dilutions for a total of 8 points. Virus infection was performed by preparing a working stock of MPV-GFP1 at a multiplicity of infection (MOI) equal to 0.05/25 μL and aliquoting 25 μL of virus inoculum to the compound and positive control wells. SF-OptiMEM was added (25 μL/well) to the appropriate wells to serve as a virus-free negative control for the assay. The final DMSO concentration of all wells is 0.5%. Plates were incubated at 32° C., 5% CO2 for 5 days.
After 5 days incubation, eGFP fluorescence intensity was measured at […] using a Spectramax i3X plate reader (VENDOR). Percent viral inhibition was calculated using the following equation: y=[[…]−(XQ/XP)]×100 Where XQ is the fluorescence intensity measured in a well containing recombinant MPV-GFP1-infected, compound-treated cells and XP is the average fluorescence intensity measured in the wells containing untreated cells infected with recombinant virus. EC50 values were then calculated by non-linear regression using a four parameter curve logistic equation. The curve fit model employed was XLFit Dose Response One Site Model 200: y=(A+(B/(1+((x/C)^D)))) Where A is the minimum y value, B is the maximum y value, C is the log EC50 value, and D is the slope factor. […] EC50 ranges are as follows: A<0.5 μM; B>0.5 μM.

[2] = tested on: genotype A, "Long" strain RSV; assay: RSV-A assay (CPE, ATPlite readout in Hep-2 cells); format: cell-based; conditions: human respiratory syncytial virus
Outline: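 Protection from RSV-induced cytopathic effect, measured as ATPlite luminescence after 5 days, gave EC50 values. Assay used genotype A Long strain at MOI 0.1 on Hep-2 cells seeded at 8,000/well in DMEM growth media with 10% FBS; compounds tested as 2-fold dilutions in duplicate.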

[3] = HEp-2, Hep-2 cells, genotype A "Long" strain RSV, MOI 0.1, read-out: Human RSV-A (“Long” strain) EC50

Row | SMILES | pEC50 [1] | pEC50 [2, 3] | pEC50 ([2]; HEp-2, read-out: Human RSV-A (“Long” strain) EC50)
1 | C[C@]1(C(=O)NCCCO)COc2c1cc([C@@](O)(CNC(=O)c1cc(OC3CC3)c3ncccc3c1)C(F)(F)F)nc2-c1ccc(F)cc1 [Example 485] | > 6.30 | > 6.70 | –
2 | COc1cccc2[nH]c(C(=O)NC[C@](O)(c3cc4c(c(-c5ccc(F)cc5)n3)OC[C@]4(C)C(N)=O)C(F)(F)F)cc12 [Example 595] | > 6.30 | > 6.70 | –
3 | C[C@]1(C(=O)NCCCNC(N)=O)COc2c1cc([C@@](O)(CNC(=O)c1cc(OC3CC3)c3ncccc3c1)C(F)(F)F)nc2-c1ccc(F)cc1 [Example 479] | < 6.30 | > 6.70 | –
4 | Cc1nc2ccc(C(=O)NC[C@](O)(c3cc4c(c(-c5ccc(F)cc5)n3)OC[C@]4(C)C(N)=O)C(F)(F)F)cc2o1 [Example 424] | > 6.30 | > 6.70 | –
5 | C[C@]1(C(N)=O)COc2c1cc([C@@](O)(CNC(=O)c1cc(OC(F)F)c3nc(N)sc3c1)C(F)(F)F)nc2-c1ccc(F)cc1 [Example 537] | < 6.30 | > 6.70 | –
6 | C[C@]1(C(N)=O)COc2c1cc([C@@](O)(CNC(=O)c1ccc(OC3CC3)c(OC3CC3)c1)C(F)(F)F)nc2-c1ccc(F)c(F)c1 [Example 91] | > 6.30 | > 6.70 | –
7 | COc1cc(C(=O)NC[C@](O)(c2cc3c(c(-c4ccc(F)cc4)n2)OC[C@]3(C)C(N)=O)C2CC2)cc2cc(C(F)(F)F)cnc12 [Example 535] | > 6.30 | > 6.70 | –
8 | COc1cc(C(=O)NCC(O)(c2cc3c(c(-c4ccc(F)cc4)n2)OC[C@]3(C)C(=O)NC2CC2)C(F)(F)F)cc2cccnc12 (stereo partly shown) [Example 27] | > 6.30 | > 6.70 | –
9 | CNC(=O)[C@@]1(C)COc2c1cc([C@@](O)(CNC(=O)c1cc(OC)c3ncccc3c1)C(F)(F)F)nc2-c1ccc(F)cc1 [Example 46] | > 6.30 | > 6.70 | –
10 | COc1cc(C(=O)NC[C@](O)(c2cc3c(c(-c4ccc(F)cc4)n2)OC[C@]3(C)C(=O)NO)C(F)(F)F)cc2cccnc12 [Example 53] | < 6.30 | > 6.70 | –
11 | C[C@]1(C(N)=O)COc2c1cc([C@](O)(CNC(=O)c1cc(OC3CC3)c3ncccc3c1)C(F)(F)F)nc2-c1ccc(F)c(Cl)c1 [Example 79] | > 6.30 | > 6.70 | –
12 | COc1cc(C(=O)NC[C@](O)(c2cc3c(c(-c4ccc(F)cc4)n2)OCC3(F)C(N)=O)C(F)(F)F)cc2cccnc12 (stereo partly shown) [Example 669] | < 6.30 | > 6.70 | –
13 | COc1cc(C(=O)NC[C@](O)(c2cc3c(c(-c4ccc(F)c(Cl)c4)n2)OC[C@]3(C)C(N)=O)C(F)(F)F)cc2cc(C)c(C)nc12 [Example 534] | > 6.30 | > 6.70 | –
14 | C[C@]1(C(N)=O)COc2c1cc([C@@](O)(CNC(=O)c1ccc(OC3CC3)c(OC3CC3)c1)C(F)(F)F)nc2-c1csc2c(F)cccc12 [Example 92] | > 6.30 | > 6.70 | –
15 | COc1cc(C(=O)NC[C@](O)(c2cc3c(c(-c4ccc(F)cc4)n2)OC[C@]3(C)C(N)=O)C(F)(F)F)ccc1OC[C@@H](C)O [Example 290] | > 6.30 | > 6.70 | –
16 | Cc1nc2cc(C(=O)NC[C@](O)(c3cc4c(c(-c5ccc(F)cc5)n3)OC[C@]4(C)C(N)=O)C(F)(F)F)ccc2[nH]1 [Example 600] | < 6.30 | > 6.70 | –
17 | Cc1cnc2c(OC(=O)NC3(C)COC3)cc(C(=O)NC[C@](O)(c3cc4c(c(-c5ccc(F)cc5)n3)OC[C@]4(C)C(N)=O)C(F)(F)F)cc2c1 [Example 549] | < 6.30 | – | > 6.70
18 | CC(C)(CO)NC(=O)[C@@]1(C)COc2c1cc([C@@](O)(CNC(=O)c1cc(OC3CC3)c3ncccc3c1)C(F)(F)F)nc2-c1ccc(F)cc1 [Example 482] | < 6.30 | > 6.70 | –
19 | C[C@]1(C(=O)NC[C@@H](O)CO)COc2c1cc([C@@](O)(CNC(=O)c1cc(OC3CC3)c3ncccc3c1)C(F)(F)F)nc2-c1ccc(F)cc1 [Example 492] | < 6.30 | > 6.70 | –
20 | C[C@]1(C(N)=O)COc2c1cc([C@@](O)(CNC(=O)c1ccc(OC3CC3)c(-c3ccncn3)c1)C(F)(F)F)nc2-c1ccc(F)cc1 [Example 116] | < 6.30 | > 6.70 | –
